Laboratory results as given in US20060247244A1, “Quinoxalinones and their use especially in the treatment of cardiovascular diseases” (BAYER HEALTHCARE AG, priority 2002, published 2006).

Target: T1, human M2 acetylcholine receptor (M2AChR) (Homo sapiens, UniProt P08172)
T1 construct: expressed in transfected cells; host or cells: CHO K1 (Chinese hamster ovary) cells constitutively expressing mitochondrially targeted aequorin and stably transfected with Galpha16
T1 sequence (P08172 1-466): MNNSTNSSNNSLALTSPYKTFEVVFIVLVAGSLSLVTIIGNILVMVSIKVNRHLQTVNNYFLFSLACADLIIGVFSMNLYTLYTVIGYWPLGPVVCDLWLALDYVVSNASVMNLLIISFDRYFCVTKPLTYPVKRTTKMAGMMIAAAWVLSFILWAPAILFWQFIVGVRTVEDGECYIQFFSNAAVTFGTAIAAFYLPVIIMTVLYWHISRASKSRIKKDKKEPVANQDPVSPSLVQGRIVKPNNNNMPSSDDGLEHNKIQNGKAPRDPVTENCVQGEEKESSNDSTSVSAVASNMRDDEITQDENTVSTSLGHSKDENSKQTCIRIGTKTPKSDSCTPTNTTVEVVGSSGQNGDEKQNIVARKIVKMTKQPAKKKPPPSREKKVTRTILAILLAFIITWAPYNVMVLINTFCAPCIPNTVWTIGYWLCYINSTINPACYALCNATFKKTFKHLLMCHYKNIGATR
Test: Cellular functional in vitro test (aequorin luminescence in recombinant CHO K1 cells)
Assay type: cell-based
Settings: agonist activity; CHO K1 cells expressing human M2AChR, aequorin and Gα16; luminescence readout
Description: A recombinant cell line was used to identify agonists of the human M2 acetylcholine receptor (M2A ChR) and to quantify the activity of the substances described herein. The cell is originally derived from a hamster ovary epithelial cell (Chinese Hamster Ovary, CHO K1, ATCC: American Type Culture Collection, Manassas, Va. 20108, USA). The test cell line constitutively expresses a modified form of the calcium-sensitive photoprotein aequorin which after reconstitution with the cofactor coelenterazine emits light when the free calcium concentration in the inner mitochondrial compartment is increased (Rizzuto R. Simpson A W, Brini M, Pozzan T.; Nature 358 (1992) 325-327). The cell is additionally stably transfected with the human M2AChR (Peralta E G, Ashkenazi A, Winslow J W, Smith D H, Ramachandran J, Capon, D J, EMBO Journal 6 (1987) 3923-3929) and with the gene which codes for the promiscuous Gα16 protein (Amatruda T T, Steele D A, Slepak V Z, Simon M I, Proceedings in the National Academy of Science USA 88 (1991), 5587-5591). The resulting M2AChR test cell responds to stimulation of the recombinant M2ACh receptor with an intracellular release of calcium ions, which can be quantified through the resulting aequorin luminescence with a suitable luminometer (Milligan G, Marshall F, Rees S, Trends in Pharmacological Sciences 17 (1996) 235-237).
Test procedure: The cells are plated out on the day before the test in culture medium (DMEM, 10% FCS, 2 mM glutamine, 10 mM HEPES; Gibco Cat.#21331-020; now belongs to: Invitrogen GmbH, 76131 Karlsruhe) in 384 (or 1536) well microtiter plates and kept in a cell incubator (96% humidity, 5% v/v CO2, 37° C.). On the day of the test, the culture medium is replaced by a Tyrode solution (in mM: 140 NaCl, 5 KCl, 1 MgCl2, 2 CaCl2, 20 glucose, 20 HEPES) which additionally contains the cofactor coelenterazine (50 μM), and the microtiter plate is then incubated for a further 3-4 hours. Immediately after the test substances have been transferred into the wells of the microtiter plate, the resulting light signal is measured in the luminometer.

EC50 | Molecule
6 nM | 4-N-[(1-S-Methyl-(2-methylbutyl)glycyl]-1-cyclopropyl-2-oxo-N-[1-S-(4-pyridinyl)-ethyl]-1,2,3,4-tetrahydro-6-quinoxalinecarboxamide [Example 25]
16 nM | 4-N-[(1-S-Methyl-(2-methylbutyl)glycyl]-1-cyclopropyl-2-oxo-N-[(3-pyridinyl-4-methoxy)ethyl]-1,2,3,4-tetrahydro-6-quinoxalinecarboxamide [Example 26]
5 nM | CC(NC(=O)c1ccc2c(c1)N(C(=O)CNC1CCCCC1)CC(=O)N2C1CC1)c1ccncc1 (single isomer, unassigned; (+)) [Example 7, (+)-4-(N-Cyclohexylglycyl)-1-cyclopropyl-2-oxo-N-[1-(4-pyridinyl)ethyl]-1,2,3,4-tetrahydro-6-quinoxalinecarboxamide]
1000 nM | CC(NC(=O)c1ccc2c(c1)N(C(=O)CNC1CCC1)CC(=O)N2C1CC1)c1cccnc1 (stereo not shown) [Example 2, 4-(N-Cyclobutylglycyl)-1-cyclopropyl-2-oxo-N-[1-(3-pyridinyl)ethyl]-1,2,3,4-tetra-hydro-6-quinoxalinecarboxamide]
37 nM | CC(NC(=O)c1ccc2c(c1)N(C(=O)CNC1CCCCC1)CC(=O)N2C1CC1)c1cccnc1 (stereo not shown) [Example 5, 4-(N-Cyclohexylglycyl)-1-cyclopropyl-2-oxo-N-[1-(3-pyridinyl)ethyl]-1,2,3,4-tetrahydro-6-quinoxalinecarboxamide]
320 nM | CC1CCCC(NCC(=O)N2CC(=O)N(C3CC3)c3ccc(C(=O)NC(C)c4cccnc4)cc32)C1 (stereo not shown) [Example 11, 1-Cyclopropyl-4-[N-(3-methylcyclohexyl)glycyl]-2-oxo-N-[1-(3-pyridinyl)ethyl]-1,2,3,4-tetrahydro-6-quinoxalinecarboxamide]
1800 nM | O=C(NCc1ccsc1)c1ccc2c(c1)N(C(=O)CNC1CCCCC1)CC(=O)N2C1CC1 [Example 12, 4-(N-Cyclohexylglycyl)-1-cyclopropyl-2-oxo-N-(3-thienylmethyl)-1,2,3,4-tetrahydro-6-quinoxalinecarboxamide]
150 nM | C[C@H](NC(=O)c1ccc2c(c1)N(C(=O)CN[C@H]1CC[C@H](O)CC1)CC(=O)N2C1CC1)c1ccncc1 [Example 22, 4-N-[(trans-4-Cyclohexanoyl)glycyl]-1-cyclopropyl-2-oxo-N-[1-S-(4-pyridinyl)-ethyl]-1,2,3,4-tetrahydro-6-quinoxalinecarboxamide]
18 nM | C[C@H](NC(=O)c1ccc2c(c1)N(C(=O)CNCC(C)(C)C)CC(=O)N2C1CC1)c1ccncc1 [Example 23]
32 nM | C[C@H](NC(=O)c1ccc2c(c1)N(C(=O)CN[C@@H](C)C(C)(C)C)CC(=O)N2C1CC1)c1ccncc1 [Example 24]
